Reference: patent US11357850B2, “Methods for treating breast cancer using INOS-inhibitory compositions” (The Methodist Hospital, priority 2014, dated 2022)
Read-outs that look alike come from different tables or passages of the source.

Columns and labels:
MDA-MB-231 = assay: Cell proliferation assay (WST-1), calcium channel antagonists; assay type: cell-based, human; conditions: 0, 1, 5, and 10 μM for 72 hrs
Description: (§1) Cell Proliferation Assay In Vitro. Mesenchymal-like, TNBC cell lines, MDA-MB-231 and SUM159, were grown in DMEM supplemented with 10% fetal bovine serum and 1% antibiotic-antimycotic. Stock solutions of various calcium-channel antagonists (amlodipine, nicardipine, nifedipine, felodipine, isradipine, diltiazem, verapamil, lacidipine, nisoldipine, nitrendipine, nivaldipine, azelnidipine, barnidipine, benidipine, efonidipine, lercanidipine, pranidipine, and manidipine) were prepared in DMSO. Effects on cell proliferation were assayed with the WST-1 method. Briefly, 1,000 (SUM159) and 2,000 (MDA-MB-231) cells/well were plated in a 96-well plate and treated with different concentrations (0, 1, 5, and 10 μM) of calcium channel antagonists for 72 hrs. Proliferation rate was determined by adding premixed WST-1 reagent. After incubation at 37° C. for three hrs, absorbance was read at 450 nm (reference wavelength 690 nm). Results were normalized against vehicle (100%). The antagonists were considered active when proliferation was decreased in ≥30%.

SUM159 = assay: as above; assay type: cell-based, human; conditions: 0, 1, 5, and 10 μM for 72 hrs
Description: as §1

MDA-MB-231 xenografts = MDA-MB-231 xenografts treated with L-NMMA, docetaxel, combination; assay type: in vivo, mice
Description: (§2) Animal Studies. Female SCID Beige mice (4-5 weeks old) (Harlan Laboratories, Houston, Tex., USA) were housed under standard laboratory conditions (22° C.; 12 hrs/12 hrs light/dark cycle and free access to food and water). Either MDA-MB-231 or SUM159 cells (3×10^6) were injected in the right mammary fat pad. Once the tumors reached 150-200 mm^3, the mice were randomized into different groups as follows (n=10/group): 1) Vehicle (saline, i.p.), 2) L-NMMA (either 80 mg/kg or 200 mg/kg, i.p., daily), 3) Docetaxel (20 mg/kg), 4) Combo (L-NMMA and docetaxel).
(§3) Self-renewal and tumor-initiating capacity was determined by MSFE and limiting-dilution assays, respectively, in single cells isolated from tumor tissue. Briefly, breast tumor tissue was minced, digested in DMEM:F12 medium with 100 U/mL of collagenase type 3 (Worthington, Lakewood, N.J., USA) and 0.8 U/mL of dispase (Gibco, Carlsbad, Calif., USA) at 37° C. for 45 min. MSFE was assayed in isolated single cells as stated above. The limiting dilution assay (LDA) was performed injecting either […] isolated cells from tumor tissue in the mammary fat pad of SCID Beige mice (n=12/group). Flow cytometric analysis of CD44^+/CD24^−/low cell population was assayed using published methods.
The role of L-NMMA was then investigated, either alone or in combination with docetaxel in a different TNBC mouse model. Docetaxel (20 mg/kg at days 0 and 21) and 200 mg/kg L-NMMA (daily) were given to MDA-MB-231 xenograft-bearing mice for 31 days.

SUM159 xenografts = SUM159 xenografts treated with L-NMMA, docetaxel, combination; assay type: in vivo, mice
Description: as §2, §3
To answer this question, daily injections of 80 mg/kg L-NMMA were first given to SUM159 xenograft-bearing mice alone or in combination with docetaxel (20 mg/kg). […] The inventor next analyzed the impact on CSC self-renewal by the MSFE assay.

[1] = system: unresectable stage III or IV advanced melanoma; conditions: cited from earlier work
[2] = system: metastatic PD-L1-positive NSCLC; conditions: cited from earlier work
[3] = system: recurrent or metastatic head and neck squamous cell carcinoma; conditions: cited from earlier work
advanced melanoma = conditions: 2 mg/kg, 173 patients; cited from earlier work
[4] = system: ipilimumab-refractory metastatic melanoma; conditions: cited from earlier work
[5] = system: advanced, PD-L1-positive TNBC; conditions: cited from earlier work
MCF10A = assay: Western blot of PERK/eIF2α/ATF4/ATF3 axis with recombinant TGFβ1; assay type: cell-based; conditions: 10 ng/mL for 24 hrs
Description: FIG. 3A, FIG. 3B, FIG. 3C, FIG. 3D, FIG. 3E, FIG. 3F, FIG. 3G, FIG. 311, FIG. 3I, and FIG. 3J show iNOS knockdown impairs tumorigenicity and EMT by a dual impact on HIF1α and endoplasmic reticulum (ER) stress/TGFβ/AFT4/ATF3 crosstalk. Proliferation (FIG. 3A), migration (FIG. 3B), and self-renewal capacity (primary and secondary mammospheres) (FIG. 3C) in MDA-MB-231 cells transfected with two different NOS2-directed shRNAs (shRNA1, shRNA2) compared with empty vector (shRNA-EV). […] Selective iNOS inhibition reduced hypoxia (HIF1α), ER stress markers (IRE1α, ATF4) (FIG. 3F), phospho-Smad2/3, Smad2/3 and mature TGFβ protein levels in MDA-MB-231 and SUM159 cells (FIG. 3G). FIG. 3H: Recombinant TGFβ1 (10 ng/mL for 24 hrs) activates the PERK/eIF2α/ATF4/ATF3 axis in MCF10A. […] FIG. 3J: Selective iNOS inhibition is postulated to impair EMT and tumor cell migration by an impact on HIF1α, ER stress (IRE1α/XBP1) and the crosstalk between ATF4, ATF3 and TGFβ. Results were normalized to empty vector. Data are presented as mean±SEM. ****p<0.0001, ***p<0.001, **p<0.01. One-way ANOVA and Bonferroni's post-hoc test;
Western Blot. Cells were cultured at a density of 2.5×10^5 cells/well in 6-well plates with or without iNOS inhibitors for 96 hrs. Cells were resuspended in 1× lysis buffer (Cell Signaling Technology, Inc.) and 1× protease/phosphatase inhibitor cocktail (Thermo Scientific). […]

CC1=C(C(=O)OC(C)C)C(c2cccc([N+](=O)[O-])c2)C(C(=O)OC2CN(C(c3ccccc3)c3ccccc3)C2)=C(N)N1 (centres unmarked) [azelnidipine]
proliferation (MDA-MB-231): dose-dependent decrease in proliferation
proliferation (SUM159): dose-dependent decrease in proliferation

CC(=O)O[C@@]12CO[C@@H]1C[C@H](O)[C@@]1(C)C(=O)[C@H](O)C3=C(C)[C@@H](OC(=O)[C@H](O)[C@@H](NC(=O)OC(C)(C)C)c4ccccc4)C[C@@](O)([C@@H](OC(=O)c4ccccc4)[C@H]21)C3(C)C [docetaxel]
limiting dilution assay, tumors (MDA-MB-231 xenografts; 5 weeks with 5×10^4 cells, vehicle 12/12): 8/12
limiting dilution assay, tumors (MDA-MB-231 xenografts; after six weeks, vehicle 6/12): 8/12
apoptosis levels (cleaved caspase-3) (MDA-MB-231 xenografts; relative to the combination group): higher apoptosis levels
limiting dilution assay, tumors (SUM159 xenografts; 7 weeks with 5×10^4 cells, vehicle 12/12): 12/12
CD44+/CD24−/low population (flow cytometry) (SUM159 xenografts; mouse, in vivo): slight increase
primary and secondary MSFE of single tumor cells isolated from tumor tissue (SUM159 xenografts; mouse, in vivo): dramatic increase
limiting dilution assay, tumors (SUM159 xenografts; week nine with 2×10^4 cells, vehicle 7/12): 3/12

CCOC(=O)C1=C(C)NC(C)=C(C(=O)OCC)C1c1ccccc1/C=C/C(=O)OC(C)(C)C [lacidipine]
proliferation (MDA-MB-231): dose-dependent decrease in proliferation
proliferation (SUM159): dose-dependent decrease in proliferation

COC(=O)C1=C(C#N)NC(C)=C(C(=O)OC(C)C)C1c1cccc([N+](=O)[O-])c1 (centres unmarked) [nivaldipine]
proliferation (MDA-MB-231): dose-dependent decrease in proliferation
proliferation (SUM159): dose-dependent decrease in proliferation

ipilimumab: comparator in the KEYNOTE-006 melanoma study
estimated 6-month PFS rate ([1]; ipilimumab 3 mg/kg Q3W, four cycles): 26.5%
estimated 12-month survival rate ([1]; ipilimumab 3 mg/kg Q3W): 58.2%
rate of Grade 3-5 treatment-related AEs ([1]; ipilimumab 3 mg/kg Q3W): 19.9%
response rate ([1]; ipilimumab 3 mg/kg Q3W): 11.9%

pembrolizumab: humanized monoclonal antibody of the IgG4/κ isotype blocking the interaction between PD-1 and its ligands
patients having a DoR of ≥6 months ([2]; 11 patients): 44%
responses ongoing at the time of the analysis, patients ([2]; 21 of 25): 85%
objective response rate (ORR) ([2]; 61 patients with PD-L1 strongly positive tumors, all partial responses): 41%
ORR ([3]; 10 mg/kg Q2W or 200 mg Q3W, n=174): 16%
responding patients with responses of 6 months or longer ([3]; 23 of 28): 82%
SAEs, patients ([3]; in vivo): 45%
dyspnea, patients ([3]; in vivo): 20%
fatigue, patients ([3]; in vivo): 46%
overall response rate (advanced melanoma): 24%
estimated 6-month PFS rate ([1]; pembrolizumab 10 mg/kg Q2W): 47.3%
estimated 6-month PFS rate ([1]; pembrolizumab 10 mg/kg Q3W): 46.4%
estimated 12-month survival rate ([1]; pembrolizumab Q2W): 74.1%
rate of Grade 3-5 treatment-related AEs ([1]; pembrolizumab Q2W): 13.3%
response rate ([1]; pembrolizumab Q2W): 33.7%
estimated 12-month survival rate ([1]; pembrolizumab Q3W): 68.4%
rate of Grade 3-5 treatment-related AEs ([1]; pembrolizumab Q3W): 10.1%
response rate ([1]; pembrolizumab Q3W): 32.9%
6-month PFS rate ([4]; 2 mg/kg Q3W): 34%
Grade 3-4 treatment-related fatigue, patients ([4]; 2 mg/kg, 178 patients): 1%
Grade 3-4 generalized edema and myalgia (each), patients ([4]; 2 mg/kg): 1%
Grade 3-4 treatment-related adverse events, patients ([4]; 2 mg/kg): 11%
6-month PFS rate ([4]; 10 mg/kg Q3W): 38%
Grade 3-4 treatment-related fatigue, patients ([4]; 10 mg/kg, 179 patients): < 1%
Grade 3-4 hypopituitarism, colitis, diarrhea, decreased appetite, hyponatremia, and pneumonitis (each), patients ([4]; 10 mg/kg): 1%
Grade 3-4 treatment-related adverse events, patients ([4]; 10 mg/kg): 14%
overall response rate ([5]; 10 mg/kg Q2W, 27 evaluable patients): 18.5%
PR, patients ([5]; 10 mg/kg Q2W): 14.8%
complete response (CR), patients ([5]; 10 mg/kg Q2W): 3.7%
progressive disease (PD), patients ([5]; 10 mg/kg Q2W): 48.1%
Grade ≥3 AEs, patients ([5]; five patients): 15.6%
median DoR ([5]; in vivo): not yet reached
median time to response ([5]; range: 7.3-32.4 weeks): 17.9 weeks

recombinant TGFβ1: recombinant human TGF-β1 (CHO cell derived)
PERK/eIF2α/ATF4/ATF3 axis (MCF10A): induced the PERK/eIF2α/ATF4/ATF3 axis
